Among the data in patent publication US8779157B2, “MGLUR4 allosteric potentiators, compositions, and methods of treating neurological dysfunction” (Vanderbilt University, priority 2009, dated 2014) are EC50 values, retold here.

The target of the test is mGluR4 (UniProt Q14833). Briefly: mGluR4 potentiation assay (fluorescence, Ca2+ or thallium/GIRK readout; EC20 agonist). The test is classed as cell-based, human / rat. Particulars: half maximal effective concentration for mGluR4 potentiation; species of receptor not given. How it is done: The disclosed compounds and compositions can be evaluated for their ability to act as a potentiator of metabotropic glutamate receptor activity, in particular mGluR4 activity, by any suitable known methodology known in the art. For example, Chinese Hamster Ovary (CHO) cells transfected with human mGluR4 or HEK cells co-transfected with rat mGluR4 and the G-protein regulated Inwardly Rectifying Potassium channel (GIRK) were plated in clear bottom assay plates for assay in a Hamamatsu FDSS Fluorometric Plate Reader. The cells were loaded with either a Ca2+-sensitive fluorescent dye or the thallium responsive dye and the plates were washed and placed into a suitable kinetic plate reader. For human mGluR4 assays, a fluorescence baseline was established for 3-5 seconds, the disclosed compounds were then added to the cells, and the response in cells was measured. Approximately two and a half minutes later, a concentration of mGluR4 orthosteric agonist (e.g. glutamate or L-AP4) eliciting approximately 20% (EC20) of the maximal agonist response was added to the cells, and the response was measured. Two minutes later, a concentration of mGluR4 agonist (e.g. glutamate or L-AP4) eliciting 80% (EC80) of the maximal agonist response was added to the cells, and the response was measured. For rat mGluR4/GIRK experiments, a baseline was established for approximately five seconds, disclosed compounds were added, and either an EC20 or EC80 concentration of agonist was added approximately two and one half minutes later. Potentiation of the agonist response of mGluR4 by the disclosed compounds was observed as an increase in response to the EC20 concentration of agonist in the presence of compound compared to the response to agonist in the absence of compound. Similarly, antagonism of the agonist response of mGluR4 by the disclosed compounds was observed as a decrease in response to the EC80 concentration of agonist in the presence of compound compared to the response to agonist in the absence of compound.
The above described assay operated in two modes. In the first mode, a range of concentrations of the disclosed compounds are added to cells, followed by a single fixed concentration of agonist. If the compound acts as a potentiatior, an EC50 value for potentiation and a maximum extent of potentiation by the compound at this concentration of agonist is determined by non-linear curve fitting. If the compound acts as a noncompetitive antagonist, an IC50 value is determined by non-linear curve fitting. In the second mode, several fixed concentrations of the disclosed compounds are added to various wells on a plate, followed by a range in concentrations of agonist for each concentration of disclosed compound. The EC50 values for the agonist at each concentration of compound are determined by non-linear curve fitting. A decrease in the EC50 value of the agonist with increasing concentrations of the sample compound (a leftward shift of the agonist concentration-response curve) is an indication of the degree of mGluR4 potentiation at a given concentration of the sample compound. A decrease in the maximal response of the agonist with increasing concentrations of the sample compounds, with or without a rightward shift in agonist potency, is an indication of the degree of noncompetitive antagonism at mGluR4. The second mode also indicates whether the sample compounds also affect the maximum response to mGluR4 to agonists.
One may read the EC50 as the concentration giving half of the maximal effect. As for `O=C(Nc1ccc(N2C(=O)C3CCCN3C2=O)c(Cl)c1)c1ccccn1` (stereo not shown) [Example 1.3.9, N-(3-chloro-4-(1,3-dioxo-1H-pyrrolo[1,2-c]imidazol-2(3H,5H,6H,7H,7aH)-yl)phenyl)picolinamide], the EC50 worked out at 2110 nM.
For `CC12CCCCN1C(=S)N(c1ccc(NC(=O)c3cccc(F)n3)cc1Cl)C2=O` (stereo not shown) [Example 1.3.98, N-(3-chloro-4-(8a-methyl-1-oxo-3-thioxohexahydroimidazo[1,5-a]pyridin-2(3H)-yl)phenyl)-6-fluoropicolinamide] the value was 470 nM; for `C[C@]1(Cc2ccccc2)NC(=O)N(c2ccc(NC(=O)c3ccccn3)cc2Cl)C1=O` [Example 1.3.19, (R)-N-(4-(4-Benzyl-4-methyl-2,5-dioxoimidazolidin-1-yl)-3-chlorophenyl)picolinamide], 840 nM.
Regarding `CC12CCCCN1C(=S)N(c1ccc(NC(=O)c3ccc(Cl)o3)cc1Cl)C2=O` (stereo not shown) [Example 1.3.97, 5-chloro-N-(3-chloro-4-(8a-methyl-1-oxo-3-thioxohexahydroimidazo[1,5-a]pyridin-2(3H)-yl)phenyl)furan-2-carboxamide], the 50% effective concentration (EC50) stood at 828 nM.
For `CC12CCCCN1C(=S)N(c1ccc(NC(=O)c3ccccn3)cc1Cl)C2=O` (stereo not shown) [Example 1.3.49, N-(3-chloro-4-(8a-methyl-1-oxo-3-thioxohexahydroimidazo[1,5-a]pyridin-2(3H)-yl)phenyl)picolinamide] the value was 185 nM.
In the case of `CN1CC(=O)N(c2ccc(NC(=O)c3ccccn3)cc2Cl)C1=O` [Example 1.3.11, N-(3-chloro-4-(3-methyl-2,5-dioxoimidazolin-1-yl)phenyl)picolinamide], the half-maximal effective concentration (EC50) was determined as 7060 nM.
The result for `CC(C)C[C@@]1(C)NC(=O)N(c2ccc(NC(=O)c3ccccn3)cc2Cl)C1=O` [Example 1.3.17, (R)-N-(3-chloro-4-(4-isobutyl-4-methyl-2,5-dioxoimidazolidin-1-yl)phenyl)picolinamide] reads 1500 nM.
The result for `O=C(Nc1ccc(N2C(=O)N[C@@H](c3ccccc3)C2=O)c(Cl)c1)c1ccccn1` [Example 1.3.56, (S)-N-(3-chloro-4-(2,5-dioxo-4-phenylimidazolidin-1-yl)phenyl)picolinamide] reads 380 nM; that for `O=C(Nc1ccc(N2C(=O)NC3(CC4CCC3C4)C2=O)c(Cl)c1)c1ccccn1` (stereo not shown) [Example 1.3.53, N-(3-chloro-4-(2′,5′-dioxospiro[bicyclo[2.2.1]heptane-2,4′-imidazolidin]-1′-yl)phenyl)picolinamide], 217 nM; that for `CC12CCCCN1C(=S)N(c1ccc(NC(=O)c3ncc(F)cc3F)cc1Cl)C2=O` (stereo not shown) [Example 1.3.96, N-(3-chloro-4-(8a-methyl-1-oxo-3-thioxohexahydroimidazo[1,5-a]pyridin-2(3H)-yl)phenyl)-3,5-difluoropicolinamide], 295 nM.
The result for `C[C@@]1(Cc2ccccc2)NC(=O)N(c2ccc(NC(=O)c3cccc(F)n3)cc2Cl)C1=O` [Example 1.3.69, (S)-N-(4-(4-benzyl-4-methyl-2,5-dioxoimidazolidin-1-yl)-3-chlorophenyl)-6-fluoropicolinamide] reads 1630 nM; that for `CC12CCCCN1C(=O)N(c1ccc(NC(=O)c3cccc(Cl)n3)cc1Cl)C2=O` (stereo not shown) [Example 1.3.85, 6-chloro-N-(3-chloro-4-(8a-methyl-1,3-dioxohexahydroimidazo[1,5-a]pyridin-2(3H)-yl)phenyl)picolinamide], 864 nM.
With `C[C@@]1(Cc2ccccc2)NC(=O)N(c2ccc(NC(=O)c3nccs3)cc2Cl)C1=O` [Example 1.3.67, (S)-N-(4-(4-benzyl-4-methyl-2,5-dioxoimidazolidin-1-yl)-3-chlorophenyl)thiazole-2-carboxamide], the 50% effective concentration (EC50) is 6110 nM.
For the compound `CC12CCCCN1C(=S)N(c1ccc(NC(=O)c3nccs3)cc1Cl)C2=O` (stereo not shown) [Example 1.3.94, N-(3-chloro-4-(8a-methyl-1-oxo-3-thioxohexahydroimidazo[1,5-a]pyridin-2(3H)-yl)phenyl)thiazole-2-carboxamide], the concentration giving a half-maximal response (EC50) came out at 761 nM.
As for `COc1cc(NC(=O)c2ccccn2)ccc1N1C(=O)C2CCCCN2C1=O` (stereo not shown) [Example 1.3.1, N-(4-(1,3-dioxotetrahydroimidazo[1,5-a]pyridin-2(1H,3H,5H)-yl)-3-methoxyphenyl)picolinamide], the EC50 is 2700 nM.
The result for `O=C(Nc1ccc(N2C(=O)C3COCCN3C2=O)c(Cl)c1)c1cscn1` (stereo not shown) [Example 1.3.26, N-(3-Chloro-4-(1,3-dioxodihydro-1H-imidazo[5,1-c][1,4]oxazin-2(3H,8H,8aH)-yl)phenyl)thiazole-4-carboxamide] reads 6110 nM; that for `O=C(Nc1ccc(N2C(=O)NC3(CCCCC3)C2=O)c(Cl)c1)c1ccccn1` [Example 1.3.12, N-(3-chloro-4-(2,4-dioxo-1,3-diazaspiro[4.5]decan-3-yl)phenyl)picolinamide], 229 nM; that for `O=C(Nc1ccc(N2C(=O)C3COCCN3C2=O)c(Cl)c1)c1ccccn1` (stereo not shown) [Example 1.3.21, N-(3-Chloro-4-(1,3-dioxodihydro-1H-imidazo[5,1-c][1,4]oxazin-2(3H,8H,8aH)-yl)phenyl)picolinamide], 2180 nM.
The result for `O=C(Nc1ccc(N2C(=O)C3CN(C4CCCCC4)CCN3C2=O)c(Cl)c1)c1ccccn1` (stereo not shown) [Example 1.3.71, N-(3-chloro-4-(7-cyclohexyl-1,3-dioxohexahydroimidazo[1,5-a]pyrazin-2(3H)-yl)phenyl)picolinamide] reads 2230 nM.
The result for `CC12CCCCN1C(=S)N(c1ccc(NC(=O)c3ncccc3F)cc1Cl)C2=O` (stereo not shown) [Example 1.3.99, N-(3-chloro-4-(8a-methyl-1-oxo-3-thioxohexahydroimidazo[1,5-a]pyridin-2(3H)-yl)phenyl)-3-fluoropicolinamide] reads 650 nM.
For the compound `O=C(Nc1ccc(N2C(=O)C3COCCN3C2=O)c(Cl)c1)c1cccc(F)n1` (stereo not shown) [Example 1.3.29, N-(3-Chloro-4-(1,3-dioxodihydro-1H-imidazo[5,1-c][1,4]oxazin-2(3H,8H,8aH)-yl)phenyl)-6-fluoropicolinamide], the EC50 was 6730 nM.
As for `O=C(Nc1ccc(N2C(=O)C3CCCCN3C2=S)c(Cl)c1)c1cccs1` (stereo not shown) [Example 1.3.77, N-(3-chloro-4-(1-oxo-3-thioxohexahydroimidazo[1,5-a]pyridin-2(3H)-yl)phenyl)thiophene-2-carboxamide], the EC50 was determined as 2780 nM.
Regarding `O=C(Nc1ccc(N2C(=O)NC3(CCCCC3)C2=O)c(C(F)(F)F)c1)c1ccco1` [Example 1.3.55, N-(4-(2,4-dioxo-1,3-diazaspiro[4.5]decan-3-yl)-3-(trifluoromethyl)phenyl)furan-2-carboxamide], the concentration giving a half-maximal response (EC50) was determined as 4120 nM.
As for `CCN1C(=O)N(c2ccc(NC(=O)c3ccccn3)cc2Cl)C(=O)[C@]1(C)Cc1ccccc1` [Example 1.3.65, (S)-N-(4-(4-benzyl-3-ethyl-4-methyl-2,5-dioxoimidazolidin-1-yl)-3-chlorophenyl)picolinamide], the EC50 stood at 236 nM.
The result for `O=C(Nc1ccc(N2C(=O)C3CCCCN3C2=S)c(Cl)c1)c1nccs1` (stereo not shown) [Example 1.3.79, N-(3-chloro-4-(1-oxo-3-thioxohexahydroimidazo[1,5-a]pyridin-2(3H)-yl)phenyl)thiazole-2-carboxamide] reads 1340 nM.
The result for `O=C(Nc1ccc(N2C(=O)C3COCCN3C2=S)c(Cl)c1)c1ccccn1` (stereo not shown) [Example 1.3.30, N-(3-Chloro-4-(1-oxo-3-thioxodihydro-1H-imidazo[5,1-c][1,4]oxazin-2(3H, 8H,8aH)-yl)phenyl)picolinamide] reads 1470 nM.
For `O=C(Nc1ccc(N2C(=O)C3CSCCN3C2=O)c(Cl)c1)c1ccccn1` (stereo not shown) [Example 1.3.40, N-(3-chloro-4-(1,3-dioxodihydro-1H-imidazo[5,1-c][1,4]thiazin-2(3H,8H,8aH)-yl)phenyl)picolinamide] the value was 403 nM; for `CC(C)[C@]1(C)NC(=O)N(c2ccc(NC(=O)c3ccccn3)cc2Cl)C1=O` [Example 1.3.59, (S)-N-(3-chloro-4-(4-isopropyl-4-methyl-2,5-dioxoimidazolidin-1-yl)phenyl)picolinamide], 1500 nM.
